In US12590057B2, “Crystalline complexes” (Theracryf PLC, priority 2020, dated 2026):
Where “and” joins values, the source holds several entries; their conditions need not be identical. Equal values may be shown once. Marks after values point to notes of the source that are not given here.

Columns and labels:
Format in all cases: physicochemical
[1] = Chemical stability in biorelevant media
Protocol: Samples of Form 1 (batch ref […]-0004-S-8002) and Form 3 (Example 5.4.1 (batch ref. 491PAL22; A-19-0132)) in 0.1 M HCl and FaSSIF media (1.2 mg/ml) were stored at ambient and 37° C. for up to 7 days. Chemical stability was assessed by determining the concentration of parent compound by HPLC on days 0, 3 and 7 in triplicate.

[2] = GVS sorption-desorption isotherms; details: for water content at starting conditions (GVS): 40% RH and 25° C.; for additional water taken up (GVS): RH increased to 90%; for crystalline form by XRPD after GVS: after sorption/desorption cycle(s); for total water content (GVS): at 90% RH; for water taken up (GVS): between 0% and 60% RH (Form 1: at 60% RH)
Protocol: Sorption isotherms were obtained using a SMS DVS Intrinsic moisture sorption analyser, controlled by DVS Intrinsic Control software. The sample temperature was maintained at 25° C. by the instrument controls. The humidity was controlled by mixing streams of dry and wet nitrogen, with a total flow rate of 200 ml/min. The relative humidity was measured by a calibrated Rotronic probe (dynamic range of 1.0-100% RH), located near the sample. The weight change, (mass relaxation) of the sample as a function of % RH was constantly monitored by a microbalance (accuracy±0.005 mg). Typically, 5-30 mg of sample was placed in a tared mesh stainless steel basket under ambient conditions. The sample was loaded and unloaded at 40% RH and 25° C. (typical room conditions). A moisture sorption isotherm was performed as outlined below (2 scans per complete cycle). The standard isotherm was performed at 25° C. at 10% RH intervals over a 0-90% RH range. Typically, a double cycle (4 scans) was carried out. Data analysis was carried out within Microsoft Excel using the DVS Analysis Suite. Samples of Example 1 (Form 1) and Example 3 (Form 3) were analysed for their sorption-desorption isotherms by GVS. […] The sample contained approximately 8% w/w water at the starting conditions of 40% RH and 25° C. […] Therefore, the second sorption profile seen in FIG. 18A is that of Form 3. […] The sample contained approximately 3-4% w/w water at the starting conditions of 40% RH and 25° C. […] A significant uptake of moisture occurred in the first sorption cycle between 60 and 70% RH equivalent to approximately 5% w/w.

[3] = Compaction testing (Heckel analysis); details: for True Density: Helium Pycnometry; for Loss on Drying - end: end of compression testing; for Loss on Drying - end / Loss on Drying - start: 105° C.; for Yield pressure slow: punch speed 0.1 mm/s; for Yield pressure fast: punch speed 300 mm/s; for Loss on Drying - start: start of compression testing
From the text: Samples of Form 1 and Form 3 were subjected to Heckel analysis to determine the yield pressure of the material upon compression under controlled conditions. A known weight of material was compressed within a 10 mm diameter die with flat faced punches moving at a set speed. The die was lubricated with magnesium stearate in acetone. The force on the punch was accurately measured at frequent intervals whilst the displacement of the punches was used to calculate the volume of the powder. The yield pressure was calculated at slow (0.1 mm/s) and fast (300 mm/s) punch speeds to assess the time dependant component to deformation of the material. The true density of the material was determined by Helium Pycnometry (Micromeritics AccuPyc II 1340) using a purge pressure and run fill pressure of 19.5 psig and an equilibration rate of 0.02 psig. Testing was performed in duplicate. Temperature and humidity were monitored at intervals during the testing.
The data were analysed by the Compaction Analysis software programme to generate values for yield pressure (Py) using the Heckel equation: ln(1/1−D)=kP+A where D=the relative density of the compact; P=Pressure applied; and K=Gradient of the line in the linear region [Heckel, Trans. Metall. Soc. AIME 221 (1961)1001-1008].
Strain Rate Sensitivity (SRS) can be calculated to determine whether the deformation characteristics of the material change with the rate of applied force. The yield pressure at high speed compression is compared to that at slow speed using the following equation [Roberts and Roe, Chem. Eng. Sci. 42(1987) p. 903]. % SRS=100×[(Py Fast−Py Slow)/Py Slow]
Loss on drying was carried out on the samples at the start and at the end of compression testing to monitor for moisture absorption during testing. A sample size of 2.0 g±0.2 g was spread onto an aluminium tray and dried until stable at 105° C. using a Mettler HB43-S Halogen moisture balance.

[4] = TGA mass loss (water content) after exposure to ambient conditions
Protocol: TGA data were collected on a TA Instruments Discovery TGA, equipped with a 25-position auto-sampler. Typically, 5-10 mg of each sample was loaded onto a pre-tared aluminium DSC pan and heated at 10° C./min from ambient temperature to 350° C. A nitrogen purge at 25 ml/min was maintained over the sample. The instrument control software was TRIOS and the data were analysed using TRIOS or Universal Analysis.
Example 3 was also analysed by TGA at days 1, 3, 7, 9, 15 and 20 after removal from the vacuum oven and exposure to ambient conditions, as described in Table 6.

[5] = 0.1M HCl, ambient, Day 0, 1.2 mg/ml nominal, Form 3 = Example 5.4.1

Structure (SMILES) | Mean Conc of parent ([1]; 0.1M HCl, 37° C., Day 0) [µg/mL] | Mean Conc of parent ([1]; 0.1M HCl, 37° C., Day 3) [µg/mL] | Mean Conc of parent ([1]; 0.1M HCl, 37° C., Day 7) [µg/mL] | Mean Conc of parent [1, 5] [µg/mL] | Mean Conc of parent ([1]; 0.1M HCl, ambient, Day 3) [µg/mL] | Mean Conc of parent ([1]; 0.1M HCl, ambient, Day 7) [µg/mL] | Mean Conc of parent ([1]; FaSSIF, 37° C., Day 0) [µg/mL] | Mean Conc of parent ([1]; FaSSIF, 37° C., Day 3) [µg/mL] | Mean Conc of parent ([1]; FaSSIF, 37° C., Day 7) [µg/mL] | Mean Conc of parent ([1]; FaSSIF, ambient, Day 0) [µg/mL] | Mean Conc of parent ([1]; FaSSIF, ambient, Day 3) [µg/mL] | Mean Conc of parent ([1]; FaSSIF, ambient, Day 7) [µg/mL] | water content at starting conditions (GVS) [2] | additional water taken up (GVS) ([2]; 25° C.) | crystalline form by XRPD after GVS [2] | total water content (GVS) ([2]; 25° C.) [% w/w] | water taken up (GVS) [2] | compaction classification [3] | sticking on punch or die wall [3] | True Density [3] [g/mL] | further results
C[S+]([O-])CCCCN=C=S.OCC1OC2OC3C(CO)OC(OC4C(CO)OC(OC5C(CO)OC(OC6C(CO)OC(OC7C(CO)OC(OC1C(O)C2O)C(O)C7O)C(O)C6O)C(O)C5O)C(O)C4O)C(O)C3O (stereo not shown) [Form 1] | 1180 | 1060 | 1050 | 1220 | 1090 | 1050 | 1180 | 920 | 940 | 1160 | 960 | 900 | approximately 8 % w/w | 4-5 % w/w | had converted to Form 3 | 12.9 | 8-9 % w/w | soft ductile | no evidence of sticking | 1.4586 | hysteresis (GVS) ([2]; 25° C.): Significant hysteresis existed between 70% and 30% RH; Loss on Drying - end [3]: 4.25% w/w; Yield pressure slow [3]: 76 MPa and 76.3 (±1.05) MPa; Yield pressure fast [3]: 89 MPa and 88.9 (±2.32) MPa; Loss on Drying - start [3]: 4.07% w/w
C[S+]([O-])CCCCN=C=S.OC[C@H]1O[C@@H]2O[C@H]3[C@H](O)[C@@H](O)[C@@H](O[C@H]4[C@H](O)[C@@H](O)[C@@H](O[C@H]5[C@H](O)[C@@H](O)[C@@H](O[C@H]6[C@H](O)[C@@H](O)[C@@H](O[C@H]7[C@H](O)[C@@H](O)[C@@H](O[C@H]1[C@H](O)[C@H]2O)O[C@@H]7CO)O[C@@H]6CO)O[C@@H]5CO)O[C@@H]4CO)O[C@@H]3CO [Form 3] | 1050 | 940 | 920 | 1080 | 940 | 1010 | 1010 | 800 | 780 | 1000 | 810 | 930 | 3-4 % w/w | 7-8 % w/w | remains as Form 3 | 11.1 | about 4 % w/w | moderately hard brittle/ductile | no evidence of sticking | 1.4562 | uptake of moisture in the first sorption cycle (GVS) ([2]; between 60 and 70% RH): approximately 5 % w/w; TGA mass loss ([4]; 1 day exposed to ambient conditions, average of two readings): 4.0* % wt; TGA mass loss ([4]; 3 days exposed to ambient conditions): 5.1 % wt; TGA mass loss ([4]; 7 days exposed to ambient conditions): 5.7 % wt; TGA mass loss ([4]; 9 days exposed to ambient conditions): 6.0 % wt; TGA mass loss ([4]; 15 days exposed to ambient conditions): 6.4 % wt; TGA mass loss ([4]; 20 days exposed to ambient conditions): 6.2 % wt; stabilised water content ([4]; after gradual absorption of atmospheric moisture): approximately 6 % wt; water molecules per 1:1 sulforaphane:α-cyclodextrin complex ([4]; at stabilised water content): 3.5 to 4; Loss on Drying - end [3]: 1.13% w/w; Yield pressure slow [3]: 109 MPa and 108.7 (±2.90) MPa; Yield pressure fast [3]: 140 MPa and 140.4 (±3.65) MPa; Loss on Drying - start [3]: 1.99% w/w
